Measurements as given in US9789194B2, “Graft copolymer polyelectrolyte complexes for drug delivery” (priority 2007, dated 2017).
Peptide text beside a SMILES is read from it.

Experiments:
[1] = KSL-W binding efficiency by ultrafiltration; format: physicochemical; conditions: free peptide, 10 kDa MWCO ultrafiltration
Protocol: Efficiency of binding for each polymer-drug complex was determined using ultrafiltration. Ultrafiltration cartridges with 10 k MWCO (Amicon Microcon Ultrafiltration Filters) were used according to manufacturer's instructions. […] The KSL-W content of filtrate and retentate were determined using HPLC as described above.

[2] = KSL-W release profiles by dialysis; format: physicochemical; conditions: free peptide, within the first 6 h of dialysis
Protocol: Each membrane cartridge was placed into 40 mL of water at 37° C. with gentle rocking (VWR brand incubating rocker, 50 Hz/15°). […] The amount of KSL-W remaining in each cartridge was evaluated at each time point using HPLC.

in vitro = conditions: human, plasma, half-life of the peptide, 50% human plasma
Protocol: Aqueous solutions of the peptide:polymer complexes with various peptide:[…], were combined 1:1 v/v with human plasma sodium heparin anticoagulated, Biological Specialty Corporation) and placed in a 37° C. incubator. Fifty microliter aliquots of this mixture were injected at 1 h intervals onto a Prosphere HP C18-300 column, 250×4.6 mm ((Grace) mounted on a Waters HPLC system. The injection was loaded onto the column and equilibrated using a 90%/10%/0.1% water/acetonitrile/trifluoroacetic acid mobile phase and then eluted using a continuous gradient up to 70% acetonitrile. Integration of the KSL-W absorbance peak at 280 nm was used to determine peptide concentration in each sample. Every sample was run in parallel with a free-drug control at the same concentration.

[3] = tested on: Staphylococcus aureus UAMS-1; format: cell-based
Protocol: The minimum inhibitory concentrations (MIC) KSL-W and its nanocomplexes were measured using the Clinical Laboratory Standards Institute (CLSI) broth microdilution method. Briefly, two-fold serial dilutions of free or complexed KSL-W solutions were prepared in THB medium at a volume of 200 µL/well in flat-bottom 96-well tissue culture plates (BD Biosciences). Hundred microliter of Staphylococcus aureus UAMS-1 (10^6 CFU/mL) was then added to each well. Plates were incubated overnight at 37° C. and then assessed by turbidity (absorbance at 600 nm). The concentration at which no turbidity was observed was considered the MIC. Each assay was reproduced in triplicate.

Molecule	efficiency of passing through the membrane [1]	release through 8-10 kDa dialysis membrane [2]	half-life (in vitro; initial KSL-W concentration between 33 and 72 μg/mL) [h]	half-life (in vitro; initial concentration between 13:2 and 330) [h]	MIC (S. aureus UAMS-1) ([3]; UAMS-1) [µg/mL]	MIC ratio (complexed/free) ([3]; free peptide, charge ratio NA)	MIC ([3]; same S. aureus strain and conditions) [µg/mL]
CC(C)[C@H](NC(=O)[C@H](Cc1c[nH]c2ccccc12)NC(=O)[C@H](Cc1ccccc1)NC(=O)[C@@H](NC(=O)[C@@H](NC(=O)[C@H](CCCCN)NC(=O)[C@@H](N)CCCCN)C(C)C)C(C)C)C(=O)N[C@@H](CCCCN)C(=O)N[C@@H](Cc1ccccc1)C(=O)N[C@@H](CCCCN)C(N)=O [KSL-W] (H-KKVVFWVKFK-NH2; N-terminus and C-terminus assumed)	over 95%	over 95%	4	1	62 to 153	1	–
gentamicin	–	–	–	–	–	–	< 3100
